In US20080221086A1, “Novel Inhibitors of Glutaminyl Cyclase” (PROBIODRUG AG, priority 2006, published 2008):
Read-outs that look alike come from different tables or passages of the source.

Target: hQC (Homo sapiens, UniProt Q16769)
Test: Fluorometric assay of glutaminyl cyclase (QC) inhibition, H-Gln-βNA or H-Gln-AMC substrate
Assay type: biochemical
Summary of the method: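 Fluorometric coupled assays at 30° C in Tris/HCl pH 8.0 with EDTA and pyroglutamyl aminopeptidase used either 0.2 mM H-Gln-βNA (320/410 nm) or H-Gln-AMC (380/460 nm), started by QC. Screening used 4 mM inhibitor at substrate 1 KM. Ki came from fitting progress curves to competitive inhibition.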

[1] = compound from preparative synthesis, purified by chromatography, fluorescent assay, read-out: IC50 hQC

Chain of hQC (Q16769 29-361): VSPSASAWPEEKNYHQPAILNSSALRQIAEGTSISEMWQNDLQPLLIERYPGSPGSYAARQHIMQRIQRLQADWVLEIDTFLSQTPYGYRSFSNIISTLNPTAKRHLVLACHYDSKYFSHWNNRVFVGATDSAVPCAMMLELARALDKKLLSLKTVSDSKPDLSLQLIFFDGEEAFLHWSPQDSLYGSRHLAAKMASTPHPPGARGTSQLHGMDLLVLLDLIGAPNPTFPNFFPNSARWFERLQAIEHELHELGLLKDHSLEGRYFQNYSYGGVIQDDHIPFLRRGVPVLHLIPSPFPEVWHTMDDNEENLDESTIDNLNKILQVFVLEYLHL

Row | IC50 (read-out: IC50) [nM] | IC50 [1] [nM] | Compound
1 | 1300 | – | O=C(C/N=C1\NC(=S)N(c2ccc3[nH]cnc3c2)C1c1ccccc1C(F)(F)F)N1CCCCC1 (stereo not shown) [Compound 144, 2-1-(1H-Benzoimidazol-5-yl)-2-thioxo-5-(2-trifluoromethyl-phenyl)-imidazolidin-(4Z)-ylideneamino-1-piperidin-1-yl-ethanone]
2 | 4000 | – | Cc1ccc(C2/C(=N\Cc3ccc4[nH]ccc4c3)NC(=S)N2c2ccc3[nH]cnc3c2)cc1 (stereo not shown) [Compound 145, 1-(1H-Benzoimidazol-5-yl)-4-1H-indol-5-ylmethylimino-5-p-tolyl-imidazolidine-2-thione]
3 | 1300 | – | S=C1N/C(=N\C2CCc3ccccc32)C(c2ccc(Br)cc2)N1c1ccc2[nH]cnc2c1 (stereo not shown) [Compound 146, 1-(1H-Benzoimidazol-5-yl)-5-(4-bromo-phenyl)-4-indan-1-ylimino-imidazolidine-2-thione]
4 | 5800 | – | O=C1CCCN1CCC/N=C1\NC(=S)N(c2ccc3[nH]cnc3c2)C1c1ccc(Br)cc1 (stereo not shown) [Compound 147, 1-{3-1-(3H-Benzoimidazol-5-yl)-5-(4-bromo-phenyl)-2-thioxo-imidazolidin-(4Z)-ylideneamino-propyl}-pyrrolidin-2-one]
5 | 3100 | – | O=C1N/C(=N/Cn2nnc3ccccc32)C(c2cc(F)cc(F)c2)N1c1ccc2[nH]cnc2c1 (stereo not shown) [Compound 148, 1-(1H-Benzoimidazol-5-yl)-4-benzotriazol-1-ylmethylimino-5-(3,5-difluoro-phenyl)-imidazolidin-2-one]
6 | 6700 | – | FC(F)(F)c1ccccc1/N=C1\NC(=S)N(c2ccc3[nH]cnc3c2)C1C1=CCCCC1 (stereo not shown) [Compound 149, 1-(1H-Benzoimidazol-5-yl)-5-cyclohex-1-enyl-4-2-trifluoromethyl-phenylimino-imidazolidine-2-thione]
7 | 6700 | – | CC(CC1/C(=N/C2CCCc3ccccc32)NC(=S)N1c1ccc2[nH]cnc2c1)CC(C)(C)C (stereo not shown) [Compound 150, 1-(1H-Benzoimidazol-5-yl)-4-1,2,3,4-tetrahydro-naphthalen-1-ylimino-5-(2,4,4-trimethyl-pentyl)-imidazolidine-2-thione]
8 | 4 | – | CSc1ccc(C2/C(=N\Cn3nnc4ccccc43)NC(=S)N2c2ccc3[nH]cnc3c2)cc1 (stereo not shown) [Compound 151, 1-(1H-Benzoimidazol-5-yl)-4-benzotriazol-1-ylmethylimino-5-(4-methylsulfanyl-phenyl)-imidazolidine-2-thione]
9 | 2200 | – | O=C(C/N=C1\C(c2cccc(Br)c2)NC(=S)N1c1ccc2[nH]cnc2c1)N1CCSCC1 (stereo not shown) [Compound 152, 2-(3-(1H-benzo[d]imidazol-5-yl)-5-(3-bromophenyl)-2-thioxoimidazolidin-4-ylideneamino)-1-thiomorpholinoetha-none]
10 | 400 | – | O=C1NC(c2cc(F)cc(F)c2)/C(=N\CC(O)c2ccccc2)N1c1ccc2[nH]cnc2c1 (stereo not shown) [Compound 153, 1-(1H-Benzoimidazol-5-yl)-5-(3,5-difluoro-phenyl)-4-2-hydroxy-2-phenyl-ethylimino-imidazolidin-2-one]
11 | 400 | – | O=C(C/N=C1\NC(=O)N(c2ccc3[nH]cnc3c2)C1c1c(F)ccc(Cl)c1F)N1CCCC(O)C1 (stereo not shown) [Compound 154, 1-(1H-Benzoimidazol-5-yl)-5-(3-chloro-2,6-difluoro-phenyl)-4-2-(3-hydroxy-piperidin-1-yl)-2-oxo-ethylimino-imidazolidin-2-one]
12 | 4 | – | O=C1CCCN1CCC/N=C1/NC(=O)N(c2ccc3[nH]cnc3c2)C1c1ccc2nsnc2c1 (stereo not shown) [Compound 155, 1-(1H-Benzoimidazol-5-yl)-5-benzo[c][1,2,5]thiadiazol-5-yl-4-3-(2-oxo-pyrrolidin-1-yl)-propylimino-imidazolidin-2-one]
13 | 400 | – | Cc1ccc(C2/C(=N/C(C)C)NC(=O)N2c2ccc3[nH]cnc3c2)c(C)c1 (stereo not shown) [Compound 156, 1-(1H-Benzoimidazol-5-yl)-5-(2,4-dimethyl-phenyl)-4-isopropylimino-imidazolidin-2-one]
14 | 5800 | – | CN(C)CCCN=C1NC(=O)N(c2ccc3[nH]cnc3c2)C1c1ccc2ccccc2c1 (stereo not shown) [Compound 157, 1-(1H-Benzoimidazol-5-yl)-4-3-dimethylamino-propylimino-5-naphthalen-2-yl-imidazolidin-2-one]
15 | 4900 | – | O=C1N/C(=N\C2CC2)C(c2ccccc2C(F)(F)F)N1c1ccc2[nH]cnc2c1 (stereo not shown) [Compound 158, 1-(1H-Benzoimidazol-5-yl)-4-cyclopropylimino-5-(2-trifluoromethyl-phenyl)-imidazolidin-2-one]
16 | 4 | – | C/N=C1/NC(=O)N(c2ccc3[nH]cnc3c2)C1c1ccc2ccccc2c1 (stereo not shown) [Compound 159, 1-(1H-Benzoimidazol-5-yl)-4-methylimino-5-naphthalen-2-yl-imidazolidin-2-one]
17 | 2200 | – | CCc1ccccc1C1/C(=N/C2CCCc3ccccc32)NC(=O)N1c1ccc2[nH]cnc2c1 (stereo not shown) [Compound 160, 1-(1H-Benzoimidazol-5-yl)-5-(2-ethyl-phenyl)-4-1,2,3,4-tetrahydro-naphthalen-1-ylimino-imidazolidin-2-one]
18 | 5800 | – | S=C1N/C(=N\C2CCCc3ccccc32)C(c2cccc(Br)c2)N1c1ccc2[nH]cnc2c1 (stereo not shown) [Compound 161, 1-(1H-Benzoimidazol-5-yl)-5-(3-bromo-phenyl)-4-1,2,3,4-tetrahydro-naphthalen-1-ylimino-imidazolidine-2-thione]

Row | IC50 (read-out: IC50) [nM] | IC50 [1] [nM] | Compound
19 | 4 | 19.5 | O=C1N/C(=N/Cc2ccccc2)C(c2ccc(Cl)cc2)N1c1ccc2[nH]cnc2c1 (stereo not shown) [Compound 162, 1-(1H-Benzoimidazol-5-yl)-4-benzylimino-5-(4-chloro-phenyl)-imidazolidin-2-one]
20 | 4 | – | O=C1N/C(=N/CCCN2CCOCC2)C(c2ccc3[nH]ccc3c2)N1c1ccc2[nH]cnc2c1 (stereo not shown) [Compound 163, 1-(1H-Benzoimidazol-5-yl)-5-(1H-indol-5-yl)-4-3-morpholin-4-yl-propylimino-imidazolidin-2-one]
21 | 9400 | – | S=C1N/C(=N\C(Cc2ccccc2)c2ccccc2)C(c2cccc(Br)c2)N1c1ccc2[nH]cnc2c1 (stereo not shown) [Compound 164, 1-(1H-Benzoimidazol-5-yl)-5-(3-bromo-phenyl)-4-1,2-diphenyl-ethylimino-imidazolidine-2-thione]
22 | 7600 | – | CC1=CC(C)C(C2/C(=N/C(C)C(C)(C)C)NC(=S)N2c2ccc3nc[nH]c3c2)CC1 (stereo not shown) [Compound 165, 1-(3H-Benzoimidazol-5-yl)-5-(2,4-dimethyl-cyclohex-3-enyl)-4-1,2,2-trimethyl-propylimino-imidazolidine-2-thione]
23 | 400 | – | O=C1CCCN1CCC/N=C1/NC(=O)N(c2ccc3[nH]cnc3c2)C1c1cc2ccccc2s1 (stereo not shown) [Compound 166, 5-Benzobthiophen-2-yl-1-(1H-benzoimidazol-5-yl)-4-3-(2-oxo-pyrrolidin-1-yl)-propylimino-imidazolidin-2-one]
24 | 400 | – | C/N=C1/NC(=O)N(c2ccc3[nH]cnc3c2)C1c1ccc(C)cc1 (stereo not shown) [Compound 167, 1-(1H-Benzoimidazol-5-yl)-4-methylimino-5-p-tolyl-imidazolidin-2-one]
25 | 4 | 27.4 | O=C1CCCN1CCC/N=C1/NC(=O)N(c2ccc3[nH]cnc3c2)C1c1ccc2c(c1)OCO2 (stereo not shown) [Compound 168, 5-Benzo[1,3]dioxol-5-yl-1-(1H-benzoimidazol-5-yl)-4-(3-(2-oxo-pyrrolidin-1-yl)-propylimino)-imidazolidin-2-one]
26 | 3100 | – | O=C1N/C(=N\C(Cc2ccccc2)c2ccccc2)C(C2=CCCCC2)N1c1ccc2[nH]cnc2c1 (stereo not shown) [Compound 169, 1-(1H-Benzoimidazol-5-yl)-5-cyclohex-1-enyl-4-1,2-diphenyl-ethylimino-imidazolidin-2-one]
27 | 4 | – | Cc1ccc(C2/C(=N\Cc3ccc4[nH]ccc4c3)NC(=O)N2c2ccc3[nH]cnc3c2)cc1 (stereo not shown) [Compound 170, 1-(1H-Benzoimidazol-5-yl)-4-1H-indol-5-ylmethylimino-5-p-tolyl-imidazolidin-2-one]
28 | 4 | – | O=C1N/C(=N\C2CCCC2)C(c2ccc3ccccc3c2)N1c1ccc2[nH]cnc2c1 (stereo not shown) [Compound 171, 1-(1H-Benzoimidazol-5-yl)-4-cyclopentylimino-5-naphthalen-2-yl-imidazolidin-2-one]
29 | 1300 | – | O=C1N/C(=N/CCCc2ccccc2)C(c2cc3ccccc3s2)N1c1ccc2[nH]cnc2c1 (stereo not shown) [Compound 172, 5-Benzobthiophen-2-yl-1-(1H-Benzoimidazol-5-yl)-4-3-phenyl-propylimino-imidazolidin-2-one]
30 | 4 | – | O=C1N/C(=N/Cn2nnc3ccccc32)C(c2ccc3[nH]ccc3c2)N1c1ccc2[nH]cnc2c1 (stereo not shown) [Compound 173, 1-(1H-Benzoimidazol-5-yl)-4-benzotriazol-1-ylmethylimino-5-(1H-indol-5-yl)-imidazolidin-2-one]
31 | 400 | – | CC(C)/N=C1\NC(=O)N(c2ccc3[nH]cnc3c2)C1c1cccc(C#N)c1 (stereo not shown) [Compound 174, 3-{3-(1H-Benzoimidazol-5-yl)-5-isopropylimino-2-oxo-imidazolidin-4-yl}-benzonitrile]
32 | 4900 | – | O=C1CCCN1CC/N=C1\NC(=S)N(c2ccc3[nH]cnc3c2)C1c1cccc(Br)c1 (stereo not shown) [Compound 175, 1-(2-(1-(1H-benzo[d]imidazol-5-yl)-5-(3-bromophenyl)-2-thioxoimidazolidin-4-ylideneamino)ethyl)pyrrolidin-2-one]
33 | 1300 | – | S=C1N/C(=N/Cn2nnc3ccccc32)C(c2ccc3c(c2)OCO3)N1c1ccc2[nH]cnc2c1 (stereo not shown) [Compound 176, 5-Benzo1,3dioxol-5-yl-1-(1H-benzoimidazol-5-yl)-4-benzotriazol-1-ylmethylimino-imidazolidine-2-thione]
34 | 4 | – | O=C1N/C(=N\Cc2ccccc2)C(c2cccc(Br)c2)N1c1ccc2nc[nH]c2c1 (stereo not shown) [Compound 177, 1-(1H-benzo[d]imidazol-6-yl)-4-(benzylimino)-5-(3-bromophenyl)imidazolidin-2-one]
35 | 6700 | – | CC(C)C1/C(=N\C(C)(C)CC(C)(C)C)NC(=S)N1c1ccc2[nH]cnc2c1 (stereo not shown) [Compound 178, 1-(1H-Benzoimidazol-5-yl)-5-isopropyl-4-1,1,3,3-tetramethyl-butylimino-imidazolidine-2-thione]
